Reference: patent EP2689847A1, “Methods for catalytic alkylation of nucleic acids” (Universität Basel, priority 2012, dated 2014)

assay: water solubility of α-diazocarbonyl substrates under the conditions of the oligonucleotide modification reaction; format: physicochemical; settings: aqueous reaction mixture, 100 mM MES buffer, pH 6.0, 50 mM α-diazocarbonyl compound
Text: A number of a-diazocarbonyl substrates were screened as potential candidates for the target reaction of oligonucleotide modification (Table 4). […] Increasing the bulkiness of the ester moiety appeared to have a negative effect on the yields of modified oligonucleotide as for entry 2 the efficacy of modification was reduced twice in comparison to the methyl ester counterpart (entry 1) and with the compound from entry 7 only trace amounts of modified oligonucleotide were isolated.
General procedure for Rh2(OAc)4-catalyzed oligonucleotide modification using a-diazocarbonyl compounds. Typically […] reaction mixtures containing 5 mM oligonucleotide, […] Rh2(OAc)4 and 50 mM a-diazocarbonyl compound in 100 mM MES buffer, pH 6.0 were kept at 20 °C for 24-72 h. Analysis of the reaction products was carried out by micropreparative HPLC-separation of 5-ml aliquots of the reaction mixtures using method A. The collected peak fractions were further assessed by ESI-MS or MALDI TOF.

water solubility under the conditions of the analysis | Structure (SMILES)
sufficiently water-soluble | COC(=O)C(=[N+]=[N-])c1ccc(CN(C)C)cc1 [Dz-1, Methyl 2-diazo-2-(4-((dimethylamino)methyl)phenyl)acetate]
sufficiently water-soluble | CCOC(=O)C(=[N+]=[N-])c1ccc(CN(C)C)cc1 [entry 2]
sufficiently water-soluble | C#CCN1CCN(CCOCCOCCOCCN2CCN(Cc3ccc(C(=[N+]=[N-])C(=O)OC)cc3)CC2)CC1 [Dz-2, Methyl2-diazo-2-(4-((4-(2-(2-(2-(2-(4-(prop-2-yn-1-yl)piperazin-1-yl)ethoxy)ethoxy)ethoxy)ethyl)piperazin-1-yl)methyl)phenyl)acetate]
